{
  "source": "patent US20050191668A1",
  "about": "“Methods of using peroxisome proliferator-activated receptor alpha target genes” (priority 2004, published 2005)",
  "assay_type_in_all_cases": "cell-based, human",
  "key": {"Pa9 gene [1]": {"system": "Pa9 gene", "experiment": "Pa9 gene expression by real-time RT-PCR in HuH7 hepatocytes", "conditions": "for Pa9 (W38098) gene expression, Percentage ± SE (%): HuH7 hepatocytes, about 20-24 h, vehicle control = 100", "description": "(§1) Human hepatocyte HuH7 cells, which are epithelial cells of liver, were obtained from Japan Health Science Research Resources Bank (Osaka, Japan). Human primary adipocytes, which are connective tissue cells specialized for the synthesis and storage of fat, were obtained from Zen-Bio, Inc (Research Triangle Park, NC). Human primary skeletal muscle cells (SKMC) were obtained from Cambrex Bio Science (Walkersville, Md.). PPARα agonists, Wy14643 (Agatha, et al, 2000, Archives of Biochemistry and Biophysics 380:353-359) and fenofibrates were obtained from Cayman Chemical (Ann Arbor, Mich.) and Sigma (St Louis, Mo.), respectively.\n(§2) Human HuH7 cells were cultured in Dulbecco's Modified Eagle Medium with 10% Fetal Bovine Serum (Gibco, N.Y.). Cells were treated with charcoal-stripped, delipidated calf serum (5%) (Sigma, St Louis, Mo.) for about 4-18 hours. Then, cells were treated with different concentrations of PPARα agonist (Wy14643 or fenofibrates) for about 20-24 h. Human SKM cells were cultured in Skeletal Muscle Growth Medium (Cambrex Bio Science, Walkersville, Md.), and were treated with different concentrations of PPARα agonist (Wy14643 or fenofibrates) for about 18-20 hours. Human primary adipocytes were cultured in Preadipocyte Medium, (Cat #PM—1, Zen-Bio, Inc., Research Triangle Park, NC), and were treated with different concentrations of PPARα agonist (Wy14643 or fenofibrates) for about 18-20 hours.\n(§3) Total RNA was purified from cultured cells following the protocol provided by the manufacturer (Trizon method, Invitrogen Inc. Ca). The polymerase chain reaction (PCR) primers and fluorescent probes (TagMan probes) for Pa9, Pa13, and Pa21 were designed from GenBank sequences of accession numbers W30988, AB000584, and NM_080725, respectively. The primers and probes were designed using the software PrimerDesign (Applied Biosystems, Foster City, Calif.). The PCR primers for Pa9 were SEQ ID NO: 7, (5-[…]) and SEQ ID NO: 8 (5-[…]). […] The PCR primers for Pa13 were SEQ ID NO: 10 (5-[…], T) and SEQ ID NO: 11 (5-[…] T). […] The PCR primers for Pa21 were SEQ ID NO: 13 (5-[…] C) and SEQ ID NO: 14 (5-[…]). […] All primers and probes were synthesized by Keystone Labs (Camarillo, Calif.).\n(§4) Reverse transcription (RT) and PCR were conducted in one step using “One-Step RT-PCR Master Mix Reagent” kit (Applied Biosystems, Foster City, Calif.) in ABI PRISM 7700 Sequence Detection System (Applied Biosystems). Each reaction was performed in a total volume of 25 μl containing 40 ng of total RNA. The reaction condition was: 48° C. for 30 minutes, 60° C. for 30 minutes, 94° C. for 5 minutes, followed by 40 cycles of 94° C. for 20 seconds and 60° C. for 1 minute. The primers for 18S ribosomal RNA were developed and provided by Applied Biosystems. The measurement of human 18S ribosomal RNA was used as an internal control for normalization of measuring and loading errors. PCR data were collected by Ct value (the cycle number at which logarithmic PCR plots cross a calculated threshold line) according to the manufacturer's guidelines and the value was used to determine the Δ^Ct (Ct of the target gene minus the Ct of 18S ribosomal RNA controls). Relative mRNA level was calculated using the equation 2^−ΔΔCt as described previously (Heid et al., 1996, Genome Res. 6:986-994)."}, "Pa13 gene [2]": {"system": "Pa13 gene", "experiment": "Pa13 gene expression by real-time RT-PCR in primary adipocytes", "conditions": "about 18-20 hours, vehicle control = 100", "description": "as §1, §2, §3, §4"}, "Pa9 gene [3]": {"system": "Pa9 gene", "experiment": "Pa9 gene expression in SKM cells with or without siRNA-reduced PPARα expression", "description": "(§5) SiRNA oligos specific to PPARα were designed and used to knock-down or reduce the expression level of PPARα in human SKMU cells following procedures known to those skilled in the art (Brummelkamp et al., 2002, Science, 296: 550-553). Four sets of siRNA oligo were originally designed using GenBank accession number S74349 (human peroxisome proliferator activated receptor alpha, cDNA; PPARα) as the template, and the software, Target Finder (Ambion, Austin, Tex.). […] The sequences for the two sets of siRNA correspond to 907 bp to 927 bp (SEQ ID NO: 21, 5′-[…] A) and 1106 bp to 1126 bp of the cDNA (SEQ ID NO: 22, 5′-[…] T) relative to the first nucleotide of the start codon. The oligos were chemically synthesized by Ambion Inc. (Austin, Tex.). The universal negative control siRNA oligo was purchased from Ambion.\nHuman primary skeletal muscle cells (hSKM, provided by Cambrex, Md.) were prepared the day before transfection at the density of 4.67×10^4 cells/per 60 mm dish (about 20% confluence). The cells were cultured at 37° C., 5% CO2 for 24 hrs with antibiotics-free SKGM medium (Cambrex, Md.).\nTransfection of siRNAs into the cultured cells was carried out following the manufacturer's instruction. Briefly, before the transfection, siPORT Amine (Ambion, Tex.) was first diluted with SKGM medium free of antibiotics and serum (10 μl siPORT/ml), followed by adding siRNA (50 nM) into the mixture. SKM cells (prepared in advance in multiple dishes) were transfected with 2 ml of the mixture for 4 hrs. Additional 8 ml of fresh SKGM medium (without antibiotics) were added into each dish to maximize cell growth and reduce potential cytotoxicity caused by the transfection reagent. As controls, the cells were also transfected with siPORT Amine alone or siPORT Amine plus universal negative control siRNA.\n(§6) Again, total RNA was isolated from the cells and real-time PCR was performed and the expression levels of target genes of interest, such as Pa9, 13 and 21, were quantitatively measured using the RT-PCR technique described in Example 1."}, "Pa13 gene [4]": {"system": "Pa13 gene", "experiment": "Pa13 gene expression in SKM cells with siRNA-reduced PPARα expression", "conditions": "SKMU cells with reduced PPARα expression", "description": "as §5\nHuman primary skeletal muscle cells (hSKM, provided by Cambrex, Md.) were prepared the day before transfection at the density of 4.67×10^4 cells/per 60 mm dish (about 20% confluence). The cells were cultured at 37° C., 5% CO2 for 24 hrs with antibiotics-free SKGM medium (Cambrex, Md.). […]\nas §6"}},
  "data": [
    {"smiles": "Cc1cccc(Nc2cc(Cl)nc(SCC(=O)O)n2)c1C", "note": "[Wy14643]", "values": [
      {"measurement": "Pa9 (W38098) gene expression, Percentage ± SE (%)", "setting": "Pa9 gene [1]; 3 uM", "result": "90 ± 17", "unit": "%"},
      {"measurement": "Pa9 (W38098) gene expression, Percentage ± SE (%)", "setting": "Pa9 gene [1]; 10 uM", "result": "190 ± 62.1", "unit": "%"},
      {"measurement": "Pa9 (W38098) gene expression, Percentage ± SE (%)", "setting": "Pa9 gene [1]; 30 uM", "result": "200 ± 48", "unit": "%"},
      {"measurement": "Pa9 (W38098) gene expression, Percentage ± SE (%)", "setting": "Pa9 gene [1]; 100 uM", "result": "540 ± 57.8", "unit": "%"},
      {"measurement": "Pa9 (W38098) gene expression, Percentage ± SE (%)", "setting": "Pa9 gene [1]; 300 uM", "result": "690 ± 42.8", "unit": "%"},
      {"measurement": "gene expression of Pa9, Pa13, or Pa21 (statement in words)", "setting": "Pa9 gene [1]; human HuH7 cells, primary SKMU cells, or primary adipocytes (Tables 1-3)", "result": "increased gene expression"},
      {"measurement": "Pa13 (N26311) gene expression, Percentage ± SE (%)", "setting": "Pa13 gene [2]; 10 uM", "result": "56 ± 10", "unit": "%"},
      {"measurement": "Pa13 (N26311) gene expression, Percentage ± SE (%)", "setting": "Pa13 gene [2]; 50 uM", "result": "55 ± 2", "unit": "%"},
      {"measurement": "Pa13 (N26311) gene expression, Percentage ± SE (%)", "setting": "Pa13 gene [2]; 250 uM", "result": "214 ± 7.9", "unit": "%"},
      {"measurement": "increase of Pa9 gene expression", "setting": "Pa9 gene [3]; SKM cells with reduced gene expression of PPARα (siRNA), 16 hrs treatment", "result": 2.35, "unit": "fold"},
      {"measurement": "induction of Pa9 gene expression", "setting": "Pa9 gene [3]; SKM cells without reduced expression level of PPARα, 16 hrs treatment", "result": 33.48, "unit": "fold"},
      {"measurement": "induction of Pa9 gene expression (FIG. 5)", "setting": "Pa9 gene [3]; SKMU cells with reduced PPARα expression", "result": "decreased induction"},
      {"measurement": "induction of Pa13 gene expression (FIG. 6)", "setting": "Pa13 gene [4]", "result": "no detectable induction"}
    ]}
  ]
}
